Results as given in PMC11955804, “Histidine-rich enantiomeric peptide coacervates enhance antigen sequestration and presentation to T cells” (Chemical Science, 2025).

What was measured:
[1] = Optical microscopy of coacervate formation (LLPS); type: physicochemical; conditions: optical microscopy, 1× PBS; across multiple synthesis batches
Text: NaCl) was used to study ionic strength effects. The absorbance was further converted to turbidity using methods previously described 1 and data was plotted as relative turbidity.
Optical microscopy and dynamic light scattering (DLS)
Droplets were visualized in 1×PBS using NCI Leica DMC4500 microscope in reflection mode with differential interference contrast. Images were captured with a DMC4500 camera under the control of Leica LAS X software (version 3.4.2). […]

[2] = Dynamic light scattering (DLS) droplet size; type: physicochemical; conditions: 1 mM peptide, 1× PBS, pH 7.4; mean of 3 measurements with 14 scans each; identical for each pair of enantiomers
Procedure: Optical microscopy and dynamic light scattering (DLS) […]
Coacervate size was measured using 1 mM
peptide solutions (1×PBS, pH 7.4) on a ZEN 3600 Zetasizer (Malvern Instruments, UK) using
DLS-Zen 0040 specialized cuvettes. The results were reported as the means of three
measurements, with 14 scans for each measurement. […]

Turbidity assay of LLPS = type: physicochemical; conditions: 1× PBS pH 7.4, absorbance at 600 nm over 24 h, plate reader
Text: Peptide synthesis and purification
The L- and D-enantiomers of (GHGLY)4, (GHGVY)4 and (GHGPY)4 peptides were purchased from GenScript and used without further modification. (GHGAY)4, (GHGFY)4, (GHGIY)4 and (GHGNY)4 were synthesized using standard Fmoc-SPPS chemistry on Rink Amide with Oxyma (Ethyl cyano(hydroxyimino) acetate) and N, N′-diisopropylcarbodiimide (DIC) as coupling agents on a Liberty Blue microwave-assisted synthesizer. Peptides were cleaved using a cocktail of trifluoroacetic acid (TFA), tri-isopropyl silane (TIS), and H2O (95:2.5:2.5) and extracted and washed in cold diethyl ether. The resulting pellet was dissolved in acetonitrile/water mixture (50:50) and frozen prior to lyophilization. Peptides were purified (~90%) using High Performance Liquid Chromatography (HPLC) on a Dionex Ultimate 3000 HPLC equipped with a diode-array detector on an Agilent Poroshell RP-C18 column (4.6 mm×150 mm), operating at a flow rate of 1 mL/min. […]
Peptide solutions (0.25–1.5 mM) were prepared in 1×PBS at pH 7.4. Aliquots (140 µL) were pipetted into a 96-well plate and absorbance at 600 nm was measured over 24 h using a Synergy HT plate reader (Biotek, USA) at RT or 37°C with or without agitation. The pH dependence of LLPS formation was assessed in 0.1 M potassium phosphate buffer (with 150 mM NaCl) at different pH values (5.8, 6.6, 7.4, 8.0) and 1 mM peptide concentration. […]
NaCl) was used to study ionic strength effects. The absorbance was further converted to turbidity using methods previously described 1 and data was plotted as relative turbidity. […]
Droplets were visualized in 1×PBS using NCI Leica DMC4500 microscope in reflection mode with differential interference contrast. […] Coacervate size was measured using 1 mM peptide solutions (1×PBS, pH 7.4) on a ZEN 3600 Zetasizer (Malvern Instruments, UK) using DLS-Zen 0040 specialized cuvettes. […]
Viscosity of the peptide solutions (1 mM or 2 mM) was tested using an ARES 2000ex rotational rheometer (TA Instruments, New Castle, DE). […] Viscosity was measured as a function

[3] = system: CD8+T cells from OT-I mice on BMDCs; assay: OT-I CD8+ T cell proliferation; type: cell-based, mouse; conditions: BMDCs treated with OVA-loaded coacervates 24 h, CTV-labeled OT-I T cells ~66 h, flow cytometry
Procedure: page 14: parameters across two channels: eGFP and DAPI. […] Cells were incubated at 37°C (protected from light) for 20 min, after which 5× staining volume of EasySep Buffer was added for another 5 min of incubation. The cells were counted again, centrifuged at 300 g for 5 min, resuspended in RPMI-1640 (Gibco 31800- 022) with 10% FBS (R and D Systems […]), 10 mM HEPES (Sigma H0887), 1× MEM NEAA (Gibco 11140-050), 1 mM sodium pyruvate (Gibco 11360-070), 1× pen-strep glutamine (Gibco 10378-016), and 55 μM β-mercaptoethanol (Gibco 21985-023) added fresh, and then plated onto treated BMDCs. The plates were incubated for ~66 h, after which supernatants were collected for Mouse Adaptive Immune CodePlex Secretome analyses (Bruker Cellular Analysis, Inc), and cells were collected for flow cytometry studies. Flow cytometry Total cells from the spleen and lymph nodes of OT-I/OT-II mice were washed with FACS […] staining. […] Data were analyzed with FlowJo version 10. Proliferation was quantified as the percentage of daughter cells out of single, live, CD4+ or CD8+T cells, gated as having a lower CTV fluorescence intensity than the peak of highest fluorescence (undivided). […] Data are expressed as mean ± S.E.M. and statistical analysis was performed using a one-way or two-way ANOVA with Tukey/Sidak's/Dunnett's multiple comparison test. *p ≤ 0.05, **p ≤ 0.01, ***p ≤ 0.001, ****p ≤ 0.0001. […]

Row | Substance | coacervate formation [1] | droplet size (DLS) [2] [μm] | turbidity over time (A600) (Turbidity assay of LLPS) | CD8+T cell proliferation [3]
1 | (GHGLY)4 [GL 20] | Consistent coacervate formation | ~1.8 | formed a turbid solution instantaneously | –
2 | (GHGVY)4 [GV 20] | Consistent coacervate formation | ~1.0 | steadily increased over 24 h | higher percentage of proliferated cells
